This passage reports MIC, ED50 and solubility results from ChEMBL document CHEMBL1138895, “Synthesis and antibacterial activity of nocathiacin I analogues” (Bioorg Med Chem Lett, 2006).

The subject of data set [1] is Staphylococcus aureus. Description: Antibacterial activity against methicillin-sensitive Staphylococcus aureus A15090. The class given is functional.
Data set [2] has as its system Enterococcus faecalis. Description: Antibacterial activity against […] A20688. It is filed as functional.
The species entered for data set [3] is Mus musculus. The data set can be described thus: Activity against Staphylococcus aureus A15090 infected ICR mouse after 8 days. It is filed as functional. The following applies: 192 h, read-out: PD50.
The nature of data set [4]: Solubility at pH 8.4. The class given is physicochemical. As to conditions: buffer.
For data set [5], the system named is Streptococcus pneumoniae. Description: Antibacterial activity against penicillin resistant Streptococcus pneumoniae A28272. It is filed as functional.
Data set [6] is described as follows: Solubility at pH 3.5. The class given is physicochemical. The following applies: buffer.
Data set [7] is described as follows: Solubility at pH 2.9. The class given is physicochemical. The following applies: buffer.
The nature of data set [8]: Solubility at pH 3.3. The class given is physicochemical. As to conditions: buffer.
Data set [9] in a line: Solubility at pH 4.0. The class given is physicochemical. As to conditions: buffer.
Data set [10] can be described thus: Solubility at pH 8.7. As to conditions: buffer. It is filed as physicochemical.
A short description of data set [11]: Solubility at pH 3.8. It is filed as physicochemical. As to conditions: buffer.
Data set [12] is described as follows: Solubility at pH 3.4. It is filed as physicochemical. The following applies: buffer.
Data set [13] can be described thus: Solubility at pH 2.8. It is filed as physicochemical. As to conditions: buffer.
A short description of data set [14]: Solubility at pH 8.1. It is filed as physicochemical. The following applies: buffer.
Data set [15] in a line: Solubility at pH 3.1. It is filed as physicochemical. As to conditions: buffer.

Values after ≈ are worked out from the molar mass of the structure shown. Where only a bound is given, the exact number is not on record here.

`CO/C(C)=C1/NC(=O)[C@H]([C@@H](C)O)NC(=O)c2csc(n2)-c2cc(O)c(-c3nc(C(=O)N[C@@H](C)C(=O)NCCS(=O)(=O)O)cs3)nc2-c2csc(n2)[C@@H]2COC(=O)c3c4c5c(cccc5n3O)COC(=O)[C@@H](O[C@H]3C[C@](C)(O)[C@H](N(C)C)[C@H](C)O3)[C@@H](OC4)[C@H](NC(=O)c3csc1n3)c1nc(cs1)C(=O)N2`: the MIC (commonly the lowest concentration found to suppress growth) in [1] is 0.25 µg/mL (≈ 0.162 µM); in data set [2], 0.25 µg/mL (≈ 0.162 µM); in data set [5], 0.03 µg/mL (≈ 0.0194 µM). For the same compound, the ED50 in data set [3] is above 10 mg/kg. Further, in [4], the solubility (in general, how much of the substance goes into solution per volume) was above 2100 µg/mL.
For the compound `CO/C(C)=C1/NC(=O)[C@H]([C@@H](C)O)NC(=O)c2csc(n2)-c2cc(O)c(-c3nc(C(=O)N[C@@H](C)C(=O)NCCN(C)C)cs3)nc2-c2csc(n2)[C@@H]2COC(=O)c3c4c5c(cccc5n3O)COC(=O)[C@@H](O[C@H]3C[C@](C)(O)[C@H](N(C)C)[C@H](C)O3)[C@@H](OC4)[C@H](NC(=O)c3csc1n3)c1nc(cs1)C(=O)N2`, the MIC in data set [1] worked out at 0.125 µg/mL (≈ 0.0827 µM); in [2], 0.25 µg/mL (≈ 0.165 µM); in data set [5], 0.125 µg/mL (≈ 0.0827 µM). The solubility in data set [6] is above 2400 µg/mL.
As to `CO/C(C)=C1/NC(=O)[C@H]([C@@H](C)O)NC(=O)c2csc(n2)-c2cc(O)c(-c3nc(C(=O)N[C@@H](C)C(=O)NCCOCCOCCOCCOCCOCCOC4O[C@H](CO)[C@@H](O)[C@H](O)[C@H]4O)cs3)nc2-c2csc(n2)[C@@H]2COC(=O)c3c4c5c(cccc5n3O)COC(=O)[C@@H](O[C@H]3C[C@](C)(O)[C@H](N(C)C)[C@H](C)O3)[C@@H](OC4)[C@H](NC(=O)c3csc1n3)c1nc(cs1)C(=O)N2` (some centres undefined), the minimal inhibitory concentration (MIC) was found to be 4 µg/mL (≈ 2.14 µM) in data set [1], 8 µg/mL (≈ 4.29 µM) in [2] and 1 µg/mL (≈ 0.536 µM) in [5]. In addition, in data set [7], the solubility was above 3700 µg/mL.
In the case of `CO/C(C)=C1/NC(=O)[C@H]([C@@H](C)O)NC(=O)c2csc(n2)-c2cc(O)c(-c3nc(C(=O)N[C@@H](C)C(=O)N4CCC(P(=O)(OC)OC)CC4)cs3)nc2-c2csc(n2)[C@@H]2COC(=O)c3c4c5c(cccc5n3O)COC(=O)[C@@H](O[C@H]3C[C@](C)(O)[C@H](N(C)C)[C@H](C)O3)[C@@H](OC4)[C@H](NC(=O)c3csc1n3)c1nc(cs1)C(=O)N2`, the figures for the MIC in data set [1], in [2] and in [5] were 0.015 µg/mL (≈ 0.00928 µM), 0.03 µg/mL (≈ 0.0186 µM) and 0.015 µg/mL (≈ 0.00928 µM), respectively. Moreover, the solubility in data set [8] is above 3000 µg/mL.
For the compound `CO/C(C)=C1/NC(=O)[C@H]([C@@H](C)O)NC(=O)c2csc(n2)-c2cc(O)c(-c3nc(C(=O)N[C@@H](C)C(=O)NCCCN4CCCC4)cs3)nc2-c2csc(n2)[C@@H]2COC(=O)c3c4c5c(cccc5n3O)COC(=O)[C@@H](O[C@H]3C[C@](C)(O)[C@H](N(C)C)[C@H](C)O3)[C@@H](OC4)[C@H](NC(=O)c3csc1n3)c1nc(cs1)C(=O)N2`, the MIC was 0.25 µg/mL (≈ 0.161 µM) in [1], 0.5 µg/mL (≈ 0.322 µM) in [2] and 0.25 µg/mL (≈ 0.161 µM) in data set [5]. In [8], this compound returned a solubility above 2600 µg/mL.
Consider `CO/C(C)=C1/NC(=O)[C@H]([C@@H](C)O)NC(=O)c2csc(n2)-c2cc(O)c(-c3nc(C(=O)N[C@@H](C)C(=O)NCc4ccc(O)c(O)c4)cs3)nc2-c2csc(n2)[C@@H]2COC(=O)c3c4c5c(cccc5n3O)COC(=O)[C@@H](O[C@H]3C[C@](C)(O)[C@H](N(C)C)[C@H](C)O3)[C@@H](OC4)[C@H](NC(=O)c3csc1n3)c1nc(cs1)C(=O)N2`, for which the minimal inhibitory concentration (MIC) was 0.03 µg/mL (≈ 0.0192 µM) in data set [1], 0.06 µg/mL (≈ 0.0384 µM) in data set [2] and 0.007 µg/mL (≈ 0.00448 µM) in [5]. For the same compound, the ED50 in [3] was above 10 mg/kg. The compound also showed a solubility in data set [7] of 20 µg/mL (≈ 12.8 µM).
As for `C=C(NC(=O)c1csc(-c2nc3c(cc2O)-c2nc(cs2)C(=O)N[C@@H]([C@@H](C)O)C(=O)N/C(=C(\C)OC)c2nc(cs2)C(=O)N[C@@H]2c4nc(cs4)C(=O)N[C@@H](COC(=O)c4c5c6c(cccc6n4O)COC(=O)[C@@H](O[C@H]4C[C@](C)(O)[C@H](N(C)C)[C@H](C)O4)[C@H]2OC5)c2nc-3cs2)n1)C(N)=O` [MJ347-81F4 A], the MIC came out at 0.007 µg/mL (≈ 0.00487 µM) in data set [1], 0.03 µg/mL (≈ 0.0209 µM) in [2] and 0.002 µg/mL (≈ 0.00139 µM) in data set [5]. In [9], the concentration in solution (solubility) was 340 µg/mL (≈ 237 µM). The ED50 in [3] is 0.8 mg/kg.
Regarding `CO/C(C)=C1/NC(=O)[C@H]([C@@H](C)O)NC(=O)c2csc(n2)-c2cc(O)c(-c3nc(C(=O)N[C@@H](C)C(=O)NCCc4ccc(S(=O)(=O)O)cc4)cs3)nc2-c2csc(n2)[C@@H]2COC(=O)c3c4c5c(cccc5n3O)COC(=O)[C@@H](O[C@H]3C[C@](C)(O)[C@H](N(C)C)[C@H](C)O3)[C@@H](OC4)[C@H](NC(=O)c3csc1n3)c1nc(cs1)C(=O)N2`, the MIC was 0.5 µg/mL (≈ 0.308 µM) in data set [1], 1 µg/mL (≈ 0.616 µM) in data set [2] and 0.125 µg/mL (≈ 0.077 µM) in data set [5]. Moreover, the ED50 in [3] is above 10 mg/kg. This compound registered a solubility in [10] above 1200 µg/mL.
In the case of `CO/C(C)=C1/NC(=O)[C@H]([C@@H](C)O)NC(=O)c2csc(n2)-c2cc(O)c(-c3nc(C(=O)N[C@@H](C)C(=O)NCc4cc(O)cc(O)c4)cs3)nc2-c2csc(n2)[C@@H]2COC(=O)c3c4c5c(cccc5n3O)COC(=O)[C@@H](O[C@H]3C[C@](C)(O)[C@H](N(C)C)[C@H](C)O3)[C@@H](OC4)[C@H](NC(=O)c3csc1n3)c1nc(cs1)C(=O)N2`, the figures for the MIC in data set [1], in [2] and in [5] were 1 µg/mL (≈ 0.64 µM), 2 µg/mL (≈ 1.28 µM) and 0.25 µg/mL (≈ 0.16 µM), respectively. The same compound showed a solubility in [11] below 0.3 µg/mL.
With `CO/C(C)=C1/NC(=O)[C@H]([C@@H](C)O)NC(=O)c2csc(n2)-c2cc(O)c(-c3nc(C(=O)N[C@@H](C)C(=O)N(CCO)CCO)cs3)nc2-c2csc(n2)[C@@H]2COC(=O)c3c4c5c(cccc5n3O)COC(=O)[C@@H](O[C@H]3C[C@](C)(O)[C@H](N(C)C)[C@H](C)O3)[C@@H](OC4)[C@H](NC(=O)c3csc1n3)c1nc(cs1)C(=O)N2`, the results for the minimum inhibitory concentration (MIC) in [1], in [2] and in data set [5] were 0.25 µg/mL (≈ 0.164 µM), 0.5 µg/mL (≈ 0.327 µM) and 0.25 µg/mL (≈ 0.164 µM), respectively. Moreover, in [12], the solubility is above 1200 µg/mL. Further, the ED50 in data set [3] is above 10 mg/kg.
In the case of `CO/C(C)=C1/NC(=O)[C@H]([C@@H](C)O)NC(=O)c2csc(n2)-c2cc(O)c(-c3nc(C(=O)N[C@@H](C)C(=O)NCCCOC4O[C@H](CO)[C@@H](O)[C@H](O)[C@H]4O)cs3)nc2-c2csc(n2)[C@@H]2COC(=O)c3c4c5c(cccc5n3O)COC(=O)[C@@H](O[C@H]3C[C@](C)(O)[C@H](N(C)C)[C@H](C)O3)[C@@H](OC4)[C@H](NC(=O)c3csc1n3)c1nc(cs1)C(=O)N2` (some centres undefined), the MIC in [1] was 4 µg/mL (≈ 2.41 µM); in [2], 8 µg/mL (≈ 4.82 µM); in data set [5], 1 µg/mL (≈ 0.602 µM). In data set [13], this compound had a solubility above 2000 µg/mL.
Consider `CO/C(C)=C1/NC(=O)[C@H]([C@@H](C)O)NC(=O)c2csc(n2)-c2cc(O)c(-c3nc(C(=O)N[C@@H](C)C(=O)NCCCP(=O)([O-])O)cs3)nc2-c2csc(n2)[C@@H]2COC(=O)c3c4c5c(cccc5n3O)COC(=O)[C@@H](O[C@H]3C[C@](C)(O)[C@H](N(C)C)[C@H](C)O3)[C@@H](OC4)[C@H](NC(=O)c3csc1n3)c1nc(cs1)C(=O)N2.[Na+]`, for which the MIC turned out to be 8 µg/mL in [1], 32 µg/mL in data set [2] and 0.25 µg/mL in [5]. The same compound showed a solubility in data set [14] above 1700 µg/mL.
For `CO/C(C)=C1/NC(=O)[C@H]([C@@H](C)O)NC(=O)c2csc(n2)-c2cc(O)c(-c3nc(C(=O)N[C@@H](C)C(=O)N(C)CCO)cs3)nc2-c2csc(n2)[C@@H]2COC(=O)c3c4c5c(cccc5n3O)COC(=O)[C@@H](O[C@H]3C[C@](C)(O)[C@H](N(C)C)[C@H](C)O3)[C@@H](OC4)[C@H](NC(=O)c3csc1n3)c1nc(cs1)C(=O)N2`, the MIC in data set [1] was 0.06 µg/mL (≈ 0.0401 µM); in [2], 0.03 µg/mL (≈ 0.02 µM); in data set [5] it was 0.003 µg/mL (≈ 0.002 µM). Moreover, the solubility in [9] and in data set [15] was 2300 µg/mL (≈ 1540 µM) throughout. In addition, the ED50 in [3] turned out to be 1.65 mg/kg.
In the case of `CO/C(C)=C1/NC(=O)[C@H]([C@@H](C)O)NC(=O)c2csc(n2)-c2cc(O)c(-c3nc(C(=O)N[C@@H](C)C(=O)NCCCO)cs3)nc2-c2csc(n2)[C@@H]2COC(=O)c3c4c5c(cccc5n3O)COC(=O)[C@@H](O[C@H]3C[C@](C)(O)[C@H](N(C)C)[C@H](C)O3)[C@@H](OC4)[C@H](NC(=O)c3csc1n3)c1nc(cs1)C(=O)N2`, the MIC was 0.06 µg/mL (≈ 0.0401 µM) in data set [1], 0.03 µg/mL (≈ 0.02 µM) in [2] and 0.007 µg/mL (≈ 0.00467 µM) in data set [5]. Also, in [13], the solubility was 2700 µg/mL (≈ 1800 µM). Further, the ED50 in data set [3] is 1.25 mg/kg.
